From PubChem BioAssay AID2060610 (Molecular Pharmacology Branch, DTP, NCI, 2025)

Tested on: 616215-338-R-J1-PDC complex spheroids, viability % test/control
Test: Anticancer human tumor 616215-338-R-J1-PDC patient-derived colon adenocarcinoma cell line growth inhibition [CLK]
Details: for IC50: curve of first compound; for viability, T/C: stronger effect = lower value
Outline: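 Multi-cell-type spheroids combined patient-derived tumor cells with HUVEC endothelial cells and human mesenchymal stem cells. Paired agents were dosed in half-log steps down from about clinical Cmax, or from 10 microM where Cmax was unknown.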

[1] = second compound 0.0316 µM, first compound 0.0316 µM
[2] = second compound 0.0316 µM, first compound 0.1 µM
[3] = second compound 0.0316 µM, first compound 0.316 µM
[4] = second compound 0.0316 µM, first compound 1 µM
[5] = second compound 0.0316 µM, first compound 3.16 µM
[6] = second compound 0.0316 µM, first compound 10 µM
[7] = second compound 0.1 µM, first compound 0.0316 µM
[8] = second compound 0.1 µM, first compound 0.1 µM
[9] = second compound 0.1 µM, first compound 0.316 µM
[10] = second compound 0.1 µM, first compound 1 µM
[11] = second compound 0.1 µM, first compound 3.16 µM
[12] = second compound 0.1 µM, first compound 10 µM
[13] = second compound 0.316 µM, first compound 0.0316 µM
[14] = second compound 0.316 µM, first compound 0.1 µM
[15] = second compound 0.316 µM, first compound 0.316 µM
[16] = second compound 0.316 µM, first compound 1 µM
[17] = second compound 0.316 µM, first compound 3.16 µM
[18] = second compound 0.316 µM, first compound 10 µM
[19] = second compound 1 µM, first compound 0.0316 µM
[20] = second compound 1 µM, first compound 0.1 µM
[21] = second compound 1 µM, first compound 0.316 µM
[22] = second compound 1 µM, first compound 1 µM
[23] = second compound 1 µM, first compound 3.16 µM
[24] = second compound 1 µM, first compound 10 µM
[25] = second compound 3.16 µM, first compound 0.0316 µM
[26] = second compound 3.16 µM, first compound 0.1 µM
[27] = second compound 3.16 µM, first compound 0.316 µM
[28] = second compound 3.16 µM, first compound 1 µM
[29] = second compound 3.16 µM, first compound 3.16 µM
[30] = second compound 3.16 µM, first compound 10 µM
[31] = second compound 10 µM, first compound 0.0316 µM
[32] = second compound 10 µM, first compound 0.1 µM
[33] = second compound 10 µM, first compound 0.316 µM
[34] = second compound 10 µM, first compound 1 µM
[35] = second compound 10 µM, first compound 3.16 µM
[36] = second compound 10 µM, first compound 10 µM
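Further: spheroids exposed to agents for 7 days.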
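Wherever viability, T/C is given: 100% = DMSO vehicle wells.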

Compound `CC(C)CC(NC(=O)C(Cc1ccccc1)NC(=O)c1cnccn1)B(O)O` (stereo unspecified) + CN1CCN(c2cc(C(=O)Nc3cc4cc(-c5cnn(C)c5)ccc4cn3)ccn2)CC1 has an IC50 (second compound 0.0316 µM) of 5.54 nM, an IC50 (second compound 0.1 µM) of 5.8 nM and an IC50 (second compound 0.316 µM) of under 0.949 nM. It also gave an IC50 (second compound 1 µM) of under 0.949 nM, an IC50 (second compound 3.16 µM) of under 0.949 nM and an IC50 (second compound 10 µM) of under 0.949 nM. It also gave a viability, T/C (second compound 0.0316 µM, first compound 0.000949 µM) of 105%, a viability, T/C (second compound 0.0316 µM, first compound 0.003 µM) of 107% and a viability, T/C (second compound 0.0316 µM, first compound 0.00949 µM) of 1.23%. It also gave a viability, T/C (second compound 0.0316 µM, first compound 0.03 µM) of 0.23%, a viability, T/C (second compound 0.0316 µM, first compound 0.0949 µM) of 0.16% and a viability, T/C (second compound 0.0316 µM, first compound 0.3 µM) of 1.94%. The viability, T/C (second compound 0.1 µM, first compound 0.000949 µM) was 121%, the viability, T/C (second compound 0.1 µM, first compound 0.003 µM) was 116% and the viability, T/C (second compound 0.1 µM, first compound 0.00949 µM) was 0.22%. It also gave a viability, T/C (second compound 0.1 µM, first compound 0.03 µM) of 0.19%, a viability, T/C (second compound 0.1 µM, first compound 0.0949 µM) of 0.18% and a viability, T/C (second compound 0.1 µM, first compound 0.3 µM) of 0.18%. The viability, T/C (second compound 0.316 µM, first compound 0.000949 µM) was 29.7%, the viability, T/C (second compound 0.316 µM, first compound 0.003 µM) was 4.76% and the viability, T/C (second compound 0.316 µM, first compound 0.00949 µM) was 0.19%. The viability, T/C (second compound 0.316 µM, first compound 0.03 µM) was 0.14%, the viability, T/C (second compound 0.316 µM, first compound 0.0949 µM) was 0.16% and the viability, T/C (second compound 0.316 µM, first compound 0.3 µM) was 0.13%. For the same compound, the viability, T/C (second compound 1 µM, first compound 0.000949 µM) was 0.15%, the viability, T/C (second compound 1 µM, first compound 0.003 µM) was 0.17% and the viability, T/C (second compound 1 µM, first compound 0.00949 µM) was 0.34%. It also gave a viability, T/C (second compound 1 µM, first compound 0.03 µM) of 0.1%, a viability, T/C (second compound 1 µM, first compound 0.0949 µM) of 0.1% and a viability, T/C (second compound 1 µM, first compound 0.3 µM) of 1.57%. For the same compound, the viability, T/C (second compound 3.16 µM, first compound 0.000949 µM) was 0.09%, the viability, T/C (second compound 3.16 µM, first compound 0.003 µM) was 0.13% and the viability, T/C (second compound 3.16 µM, first compound 0.00949 µM) was 0.12%. For the same compound, the viability, T/C (second compound 3.16 µM, first compound 0.03 µM) was 0.08%, the viability, T/C (second compound 3.16 µM, first compound 0.0949 µM) was 1.71% and the viability, T/C (second compound 3.16 µM, first compound 0.3 µM) was 0.13%. For the same compound, the viability, T/C (second compound 10 µM, first compound 0.000949 µM) was 0.08%, the viability, T/C (second compound 10 µM, first compound 0.003 µM) was 0.13% and the viability, T/C (second compound 10 µM, first compound 0.00949 µM) was 0.15%. For the same compound, the viability, T/C (second compound 10 µM, first compound 0.03 µM) was 0.11%, the viability, T/C (second compound 10 µM, first compound 0.0949 µM) was 2.22% and the viability, T/C (second compound 10 µM, first compound 0.3 µM) was 0.2%.
`CC1(C)CCC(CN2CCN(c3ccc(C(=O)NS(=O)(=O)c4ccc(NCC5CCOCC5)c([N+](=O)[O-])c4)c(Oc4cnc5[nH]ccc5c4)c3)CC2)=C(c2ccc(Cl)cc2)C1` + CN1CCN(c2cc(C(=O)Nc3cc4cc(-c5cnn(C)c5)ccc4cn3)ccn2)CC1 showed an IC50 (second compound 0.0316 µM) of 5820 nM, an IC50 (second compound 0.1 µM) of 4310 nM and an IC50 (second compound 0.316 µM) of under 31.6 nM. It also gave an IC50 (second compound 1 µM) of under 31.6 nM, an IC50 (second compound 3.16 µM) of under 31.6 nM and an IC50 (second compound 10 µM) of under 31.6 nM. It also gave a viability, T/C [1] of 105%, a viability, T/C [2] of 106% and a viability, T/C [3] of 102%. It also gave a viability, T/C [4] of 103%, a viability, T/C [5] of 106% and a viability, T/C [6] of 1.63%. It also gave a viability, T/C [7] of 109%, a viability, T/C [8] of 118% and a viability, T/C [9] of 110%. It also gave a viability, T/C [10] of 129%, a viability, T/C [11] of 67.9% and a viability, T/C [12] of 1.54%. For the same compound, the viability, T/C [13] was 35.4%, the viability, T/C [14] was 31.4% and the viability, T/C [15] was 32%. It also gave a viability, T/C [16] of 26.9%, a viability, T/C [17] of 12.7% and a viability, T/C [18] of 1.79%. It also gave a viability, T/C [19] of 0.16%, a viability, T/C [20] of 0.22% and a viability, T/C [21] of 0.2%. The viability, T/C [22] was 0.16%, the viability, T/C [23] was 2.45% and the viability, T/C [24] was 0.3%. For the same compound, the viability, T/C [25] was 0.12%, the viability, T/C [26] was 0.14% and the viability, T/C [27] was 0.15%. For the same compound, the viability, T/C [28] was 0.12%, the viability, T/C [29] was 0.11% and the viability, T/C [30] was 0.62%. It also gave a viability, T/C [31] of 0.13%, a viability, T/C [32] of 0.14% and a viability, T/C [33] of 0.16%. For the same compound, the viability, T/C [34] was 0.15%, the viability, T/C [35] was 3.51% and the viability, T/C [36] was 0.2%.
In the case of `CC1COCCN1c1cc(C2(S(C)(=N)=O)CC2)nc(-c2ccnc3[nH]ccc23)n1` (stereo unspecified) + CN1CCN(c2cc(C(=O)Nc3cc4cc(-c5cnn(C)c5)ccc4cn3)ccn2)CC1, the IC50 (second compound 0.0316 µM) is reported as over 10000 nM, the IC50 (second compound 0.1 µM) is reported as 4970 nM and the IC50 (second compound 0.316 µM) is reported as under 31.6 nM. It also gave an IC50 (second compound 1 µM) of under 31.6 nM, an IC50 (second compound 3.16 µM) of under 31.6 nM and an IC50 (second compound 10 µM) of under 31.6 nM. It also gave a viability, T/C [1] of 98.6%, a viability, T/C [2] of 99.8% and a viability, T/C [3] of 95.3%. It also gave a viability, T/C [4] of 105%, a viability, T/C [5] of 102% and a viability, T/C [6] of 54.7%. The viability, T/C [7] was 117%, the viability, T/C [8] was 106% and the viability, T/C [9] was 96.6%. It also gave a viability, T/C [10] of 102%, a viability, T/C [11] of 60.5% and a viability, T/C [12] of 33.5%. For the same compound, the viability, T/C [13] was 34.7%, the viability, T/C [14] was 29.4% and the viability, T/C [15] was 28.4%. It also gave a viability, T/C [16] of 21.3%, a viability, T/C [17] of 23.9% and a viability, T/C [18] of 15.4%. For the same compound, the viability, T/C [19] was 0.14%, the viability, T/C [20] was 2.28% and the viability, T/C [21] was 2.21%. It also gave a viability, T/C [22] of 0.15%, a viability, T/C [23] of 0.1% and a viability, T/C [24] of 2.62%. For the same compound, the viability, T/C [25] was 0.14%, the viability, T/C [26] was 0.12% and the viability, T/C [27] was 0.15%. For the same compound, the viability, T/C [28] was 0.14%, the viability, T/C [29] was 2.05% and the viability, T/C [30] was 3.08%. For the same compound, the viability, T/C [31] was 0.16%, the viability, T/C [32] was 0.15% and the viability, T/C [33] was 0.21%. The viability, T/C [34] was 0.23%, the viability, T/C [35] was 0.23% and the viability, T/C [36] was 0.24%.
